Measurements reported in patent US20200288721A1, “PESTICIDAL COMPOSITION COMPRISING AN OXIME CARBAMATE AND USE THEREOF” (priority 2017, published 2020).

experiment: Stability Test: storage of SL formulations in sealed bottles at 54° C. for 14 days; assay type: physicochemical; conditions: acid at 1% (Table 1) or 1-3% (Table 3) in 24% oxamyl SL
Description: (§1) Samples of the compositions summarised in Table 1 above were packaged in commercially available 500 ml fluorinated plastic bottles and the bottles sealed. The bottles were stored at 54° C. for 14 days. Thereafter, the bottles were cooled to room temperature and their appearance assessed. The concentration of the active ingredient, oxamyl, in each bottle was measured.
as §1, with “Table 3” for “Table 1”

Compound | stabilisation / chemical degradation of the oxamyl active ingredient (in words)
CC(=O)O [Acetic acid] | significantly reduced the chemical degradation
OB(O)O [boric acid] | not effective in stabilising the oxamyl active ingredient
O=C(O)CC(O)(CC(=O)O)C(=O)O [citric acid] | significantly reduced the chemical degradation
Cl [hydrochloric acid] | significantly reduced the chemical degradation
O=P(O)(O)O [phosphoric acid] | significantly reduced the chemical degradation
